# Paper PMC10950972, “Relative bioavailability of fedratinib through various alternative oral administration methods in healthy adults” (Cancer Chemotherapy and Pharmacology, 2023)
# Where two headings read alike, the source gives them in different places. Marks after values point to notes of the source that are not given here.
# Tests used:
# [1] = Phase 1 relative bioavailability study part 2: plasma pharmacokinetics of fedratinib (3-period crossover); type: in vivo, human; conditions: for Cmax / Tmax / AUC(0-t) / AUC(0-inf) / half-life: human, plasma; for half-life: read-out: t½, mean (SD) (converted)
# Procedure: Study part 2 was a 3-period, 6-sequence, open-label, crossover design (Fig. 1B). Treatment 2A (reference) consisted of fedratinib 400 mg (4 × 100-mg capsules) administered orally alongside a nutritional supplement. Treatment 2B (test) consisted of fedratinib 400 mg dispersed in the nutritional supplement (180 mL, Ensure Plus), administered via nasogastric tube, and flushed with 60 mL of sterile water. Treatment 2C (test) consisted of fedratinib 400 mg as a divided dose (2 × 100-mg capsules BID) administered alongside the nutritional supplement. Participants were randomized to receive treatment in one of the following sequences: 2A–2B–2C, 2A–2C–2B, 2B–2A–2C, 2B–2C–2A, 2C–2A–2B, or 2C–2B–2A. […] In the case of an evening (second) dose in the divided dosing plan of treatment 2C, participants were directed to pre-fast at least 2 h before fedratinib dose, and 4 h after fedratinib dose, with water restricted from approximately 2 h before and 1 h after dosing, excluding water given with the treatment.
# Approximately 1 h before each fedratinib administration, ondansetron oral tablet (film coated) 8 mg was given orally to reduce the potential for fedratinib-related nausea and vomiting. There was a washout period of at least 12 days between each dose of fedratinib. The duration from screening through the follow-up phone call was approximately 10 weeks. Participants resided at the clinical site from days -1 to 23 (study part 1), or days -1 to 35 (study part 2). If a participant discontinued from the study for any reason, an early termination visit was performed, with only the safety assessments scheduled for the day of discharge taking place. Additionally, each participant who discontinued also received a follow-up phone call 4 (± 2) days after completion of the early termination visit.
# For study part 1, and part 2 treatments 2A and 2B, blood samples were collected pre-dose (0 h) and at 0.5, 1, 1.5, 2, 3, 4, 6, 8, 12, 24, 48, 72, 120, 168, 192, and 240 h post-dose. For treatment 2C, blood samples were collected pre-dose (0 h) and at 0.5, 1, 1.5, 2, 3, 4, 6, 8, 12, 12.5, 13, 13.5, 14, 15, 16, 18, 24, 48, 72, 120, 168, 192, and 240 h post-dose of the first dose. The plasma concentration of fedratinib was measured using a validated liquid chromatography-tandem mass spectrometry assay with a lower limit of quantification of 1.00 ng/mL [12, 20].
# Plasma PK parameters were calculated using noncompartmental methods by a validated PK analysis program (Phoenix® WinNonlin®, v8.3.4 [Certara USA, Inc., Princeton, NJ, USA]) using actual times. The PK parameters determined for fedratinib Cmax, Tmax, AUC from time 0 to the time of the last quantifiable concentration (AUC0–t), AUC from time 0 to infinity (AUC0–∞), and t½. Additionally for treatment 2C, Cmax and Tmax were estimated after both the first dose (Cmax and Tmax) and the second dose (Cmax2 and Tmax2). AUC0–t and AUC0–∞ were estimated from time 0 (the first dose) through 240 h after the first dose. AUC parameters were calculated using the linear-log trapezoidal method.
# The sample size for this study was based on consideration of the precision in the comparison of PK parameters, represented by the 90% confidence interval (CI) of the geometric mean ratios of Cmax and AUC of fedratinib. […] Only participants with valid PK data were included in the summary statistics and statistical analysis.
# To compare the PK parameters and estimated relative bioavailability of fedratinib following different administration methods in each study part (treatment 1B to 1A, and treatment 2B and 2C to 2A), a linear mixed-effect model with treatment, period, and sequence as fixed effects and participant nested within sequence as a random effect was fitted to the natural log-transformed PK parameters (Cmax, AUC0–t, and AUC0–∞) for use in estimation of effects and construction of CIs. […]
# [2] = test system: patients with myelofibrosis; conditions: cited from earlier work
# [3] = In vitro drug recovery from the nasogastric tube and stability in suspension (data on file); type: physicochemical; conditions: in vitro studies
# Text: Reduced exposure was also unlikely to be due to misplacement of the nasogastric tube, as placement was confirmed through X-ray imaging (data on file). The differences in exposure to fedratinib between treatments 2B, 2C, and 2A were likely to be due to interparticipant variability. Furthermore, the 90% CI for the difference in exposure to fedratinib between treatments 2B and 2A fell within the 0.8–1.25 range conventionally defined as having no clinical effect.
# [4] = test system: healthy adults; assay: Safety assessment (adverse events) in the phase 1 study; type: in vivo, human
# Procedure: Participants were monitored for adverse events (AEs) during the study, including assessments for clinical symptoms, biochemical, hematologic, and urinalysis laboratory results, physical examinations, 12-lead electrocardiograms, and vital signs. AEs were assessed for seriousness, severity, and relationship to the drug. AEs were assigned to the last study treatment administered at the time of onset, starting during or after the administration of the first dose. AEs that occurred after discharge were assigned to the last study treatment received for up to 30 days after the last dose of fedratinib.
# [5] = parameters: method as in earlier work; conditions: 400 mg dosing in patients with myelofibrosis; range 2–4 h; cited from earlier work
# [6] = parameters: method as in PMID 27136912; conditions: 100 mg and 500 mg doses, healthy volunteers; cited from earlier work
# [7] = Treatment 2B vs 2A (nasogastric tube vs intact capsules), linear mixed-effect model
# [8] = Treatment 2C: 400 mg oral divided dose (2 × 100-mg capsules BID) with nutritional supplement, after second dose, n = 30
structure (smiles),measurement,setting,value
Cc1cnc(Nc2ccc(OCCN3CCCC3)cc2)nc1Nc1cccc(S(=O)(=O)NC(C)(C)C)c1 [fedratinib],AUC0–∞ geometric mean ratio (90% CI),[1]; [7],0.863 (0.816–0.912)
same,Cmax geometric mean ratio (90% CI),[1]; [7],0.898 (0.837–0.963)
same,AUC0–∞ geometric mean ratio (90% CI),"[1]; Treatment 2C vs 2A (divided dose vs intact capsules QD), linear mixed-effect model",0.850 (0.804–0.899)
same,"Cmax2, geometric mean (Geo. %CV)",[1]; [8],487.3^b (44.0) ng/mL
same,"Tmax2, median (range)",[1]; [8],3.9^b (1.0–6.0) h
same,Cmax,"[1]; oral, 400 mg, Treatment 2C: 400 mg divided dose (2 × 100-mg capsules BID), after first dose, n = 30, read-out: Cmax, geometric mean (statistical analysis)",641 ng/mL
same,Tmax,"[1]; oral, 400 mg, Treatment 2C: 400 mg divided dose (2 × 100-mg capsules BID), after first dose, n = 30, read-out: Tmax, median (statistical analysis)",2.26 h
same,AUC(0-t),"[1]; oral, 400 mg, Treatment 2C: 400 mg divided dose (2 × 100-mg capsules BID), n = 30, read-out: AUC0–t, geometric mean (statistical analysis)",18900 ng·h/mL
same,AUC(0-inf),"[1]; oral, 400 mg, Treatment 2C: 400 mg divided dose (2 × 100-mg capsules BID), n = 30, read-out: AUC0–∞, geometric mean (statistical analysis)",21300 ng·h/mL
same,AUC(0-t),"[1]; other: nasogastric tube, 400 mg, Treatment 2B: single 400 mg via nasogastric tube, capsule contents dispersed in nutritional supplement, n = 30, read-out: AUC0–t, geometric mean (Geo. %CV)",19200 ng·h/mL
same,AUC(0-inf),"[1]; other: nasogastric tube, 400 mg, Treatment 2B: single 400 mg via nasogastric tube, capsule contents dispersed in nutritional supplement, n = 30, read-out: AUC0–∞, geometric mean (Geo. %CV)",21600 ng·h/mL
same,Cmax,"[1]; other: nasogastric tube, 400 mg, Treatment 2B: single 400 mg via nasogastric tube, capsule contents dispersed in nutritional supplement, n = 30, read-out: Cmax, geometric mean (Geo. %CV)",1250 ng/mL
same,Tmax,"[1]; other: nasogastric tube, 400 mg, Treatment 2B: single 400 mg via nasogastric tube, capsule contents dispersed in nutritional supplement, n = 30, read-out: Tmax, median (range)",1.9 h
same,half-life,"[1]; other: nasogastric tube, 400 mg, Treatment 2B: single 400 mg via nasogastric tube, capsule contents dispersed in nutritional supplement, n = 30",106 h
same,AUC(0-t),"[1]; other: nasogastric tube, 400 mg, Treatment 2B: single 400 mg via nasogastric tube, dispersed in nutritional supplement, n = 30, read-out: AUC0–t, geometric mean (statistical analysis)",19200 ng·h/mL
same,AUC(0-inf),"[1]; other: nasogastric tube, 400 mg, Treatment 2B: single 400 mg via nasogastric tube, dispersed in nutritional supplement, n = 30, read-out: AUC0–∞, geometric mean (statistical analysis)",21600 ng·h/mL
same,Cmax,"[1]; other: nasogastric tube, 400 mg, Treatment 2B: single 400 mg via nasogastric tube, dispersed in nutritional supplement, n = 30, read-out: Cmax, geometric mean (statistical analysis)",1250 ng/mL
same,Tmax,"[1]; other: nasogastric tube, 400 mg, Treatment 2B: single 400 mg via nasogastric tube, dispersed in nutritional supplement, n = 30, read-out: Tmax, median (statistical analysis)",1.87 h
same,AUC(0-t),"[1]; po, 400 mg, Treatment 2A: single 400 mg oral, 4 × 100-mg intact capsules with nutritional supplement, n = 30, read-out: AUC0–t, geometric mean (Geo. %CV)",22600 ng·h/mL
same,AUC(0-inf),"[1]; po, 400 mg, Treatment 2A: single 400 mg oral, 4 × 100-mg intact capsules with nutritional supplement, n = 30, read-out: AUC0–∞, geometric mean (Geo. %CV)",25000 ng·h/mL
same,Cmax,"[1]; po, 400 mg, Treatment 2A: single 400 mg oral, 4 × 100-mg intact capsules with nutritional supplement, n = 30, read-out: Cmax, geometric mean (Geo. %CV)",1390 ng/mL
same,Tmax,"[1]; po, 400 mg, Treatment 2A: single 400 mg oral, 4 × 100-mg intact capsules with nutritional supplement, n = 30, read-out: Tmax, median (range)",2.9 h
same,half-life,"[1]; po, 400 mg, Treatment 2A: single 400 mg oral, 4 × 100-mg intact capsules with nutritional supplement, n = 30",96.8 h
same,AUC(0-t),"[1]; po, 400 mg, Treatment 2A: single 400 mg oral, intact capsules with nutritional supplement, n = 30, read-out: AUC0–t, geometric mean (statistical analysis)",22600 ng·h/mL
same,AUC(0-inf),"[1]; po, 400 mg, Treatment 2A: single 400 mg oral, intact capsules with nutritional supplement, n = 30, read-out: AUC0–∞, geometric mean (statistical analysis)",25000 ng·h/mL
same,Cmax,"[1]; po, 400 mg, Treatment 2A: single 400 mg oral, intact capsules with nutritional supplement, n = 30, read-out: Cmax, geometric mean (statistical analysis)",1390 ng/mL
same,Tmax,"[1]; po, 400 mg, Treatment 2A: single 400 mg oral, intact capsules with nutritional supplement, n = 30, read-out: Tmax, median (statistical analysis)",2.67 h
same,Cmax,"[1]; po, 400 mg, Treatment 2C: 400 mg oral divided dose (2 × 100-mg capsules BID) with nutritional supplement, after the first dose, n = 30, read-out: Cmax, geometric mean (Geo. %CV)",641 ng/mL
same,Tmax,"[1]; po, 400 mg, Treatment 2C: 400 mg oral divided dose (2 × 100-mg capsules BID) with nutritional supplement, after the first dose, n = 30, read-out: Tmax, median (range)",1.9 h
same,half-life,"[1]; po, 400 mg, Treatment 2C: 400 mg oral divided dose (2 × 100-mg capsules BID) with nutritional supplement, after the second dose, n = 30",96.7 h
same,AUC(0-t),"[1]; Treatment 2C: 400 mg oral divided dose (2 × 100-mg capsules BID) with nutritional supplement, from time 0 (first dose) through 240 h, n = 30, read-out: AUC0–t, geometric mean (Geo. %CV)",18900 ng·h/mL
same,AUC(0-inf),"[1]; Treatment 2C: 400 mg oral divided dose (2 × 100-mg capsules BID) with nutritional supplement, from time 0 (first dose), n = 30, read-out: AUC0–∞, geometric mean (Geo. %CV)",21300 ng·h/mL
same,Patients who experienced nausea,[2]; FREEDOM study,39.5%
same,Patients who experienced nausea,[2]; JAKARTA trial,62%
same,Drug recovery from the nasogastric tube,[3],near-complete drug recovery
same,Stability in suspension,[3],stable up to 1 h in suspension
same,Deaths or serious/severe AEs,"[4]; during the study, all treatments",no deaths or serious/severe AEs were reported
same,"AE constipation, participants","[4]; human, in vivo",12.1%
same,"AE diarrhea, participants","[4]; human, in vivo",10.3%
same,"AE somnolence, participants","[4]; human, in vivo",10.3%
same,Moderate AEs reported (number of AEs),"[4]; human, in vivo",4
same,Participants discontinued due to AEs,"[4]; human, in vivo",3 participants
same,Participants with at least 1 AE,"[4]; human, in vivo",65.5%
same,"Time to peak concentration, median",[5],3 h
same,"Increases in exposure (Cmax, AUC) when administered directly after food vs 10-h fasted",[6],< 25%
same,"Terminal elimination half-life (t½), fed vs fasted conditions",[6],remained unaffected
